In ChEMBL document CHEMBL1201862, “PubChem BioAssay data set” (2004):
Calls of active or inactive are those of the source.

Key:
Beta-galactosidase = Beta-galactosidase (Escherichia coli, UniProt Q8VNN2); assay: Dose response counterscreen for EBI2 assay utilizing the enzyme, b-galactosidase.; type: functional
[1] = viability of uninfected HEp-2 cells – cell-based, HTS, cytotoxicity control for RSV inhibitor project, dose response (AID 2410); type: functional; details: human respiratory syncytial virus
[2] = molecular target: Glucose-6-phosphate 1-dehydrogenase (Homo sapiens, UniProt P11413); assay: inhibition of Homo sapiens G6PD, dose series – biochemical, fluorescence, selectivity assay for P. falciparum G6PD inhibitor project, dose response (AID 504792); type: functional
Chain of Glucose-6-phosphate 1-dehydrogenase (P11413 whole entry): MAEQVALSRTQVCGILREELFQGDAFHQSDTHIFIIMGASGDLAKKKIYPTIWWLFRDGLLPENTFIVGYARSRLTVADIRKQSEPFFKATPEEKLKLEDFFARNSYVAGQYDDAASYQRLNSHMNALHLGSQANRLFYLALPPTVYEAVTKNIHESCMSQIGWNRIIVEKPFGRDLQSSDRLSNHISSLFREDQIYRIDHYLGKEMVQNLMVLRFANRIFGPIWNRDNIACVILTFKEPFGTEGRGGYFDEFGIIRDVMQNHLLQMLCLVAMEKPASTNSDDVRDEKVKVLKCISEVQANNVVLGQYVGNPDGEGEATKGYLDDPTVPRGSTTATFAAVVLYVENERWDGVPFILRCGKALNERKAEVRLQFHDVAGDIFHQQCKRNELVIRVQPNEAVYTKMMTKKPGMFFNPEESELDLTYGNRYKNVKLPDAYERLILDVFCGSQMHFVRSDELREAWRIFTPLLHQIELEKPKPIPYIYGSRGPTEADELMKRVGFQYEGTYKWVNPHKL

Mu-type opioid receptor = Mu-type opioid receptor (Homo sapiens, UniProt P35372); type: functional, cell-based;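 also: U2OS cells with beta-arrestin recruitment to OPRM1 by beta-gal complementation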
Chain of Mu-type opioid receptor (P35372 whole entry): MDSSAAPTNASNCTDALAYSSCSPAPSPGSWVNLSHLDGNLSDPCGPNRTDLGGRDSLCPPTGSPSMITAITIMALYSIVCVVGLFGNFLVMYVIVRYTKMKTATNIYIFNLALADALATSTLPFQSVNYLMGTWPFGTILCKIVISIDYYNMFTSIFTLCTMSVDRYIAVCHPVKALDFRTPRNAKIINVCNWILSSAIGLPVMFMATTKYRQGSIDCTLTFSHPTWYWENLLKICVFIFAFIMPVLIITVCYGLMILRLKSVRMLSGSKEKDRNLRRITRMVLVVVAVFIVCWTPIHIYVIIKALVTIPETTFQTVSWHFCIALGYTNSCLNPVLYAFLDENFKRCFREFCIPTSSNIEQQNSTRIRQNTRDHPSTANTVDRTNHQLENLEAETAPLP

[3] = molecular target: 5-hydroxytryptamine receptor 2A (Mus musculus, UniProt P35363); type: functional, cell-based;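 also: CHO-K1 cells with tagged receptor and beta-arrestin; agonist potency measured as compound-induced activation of the receptor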
Chain of 5-hydroxytryptamine receptor 2A (P35363 whole entry, the tested form may be a part): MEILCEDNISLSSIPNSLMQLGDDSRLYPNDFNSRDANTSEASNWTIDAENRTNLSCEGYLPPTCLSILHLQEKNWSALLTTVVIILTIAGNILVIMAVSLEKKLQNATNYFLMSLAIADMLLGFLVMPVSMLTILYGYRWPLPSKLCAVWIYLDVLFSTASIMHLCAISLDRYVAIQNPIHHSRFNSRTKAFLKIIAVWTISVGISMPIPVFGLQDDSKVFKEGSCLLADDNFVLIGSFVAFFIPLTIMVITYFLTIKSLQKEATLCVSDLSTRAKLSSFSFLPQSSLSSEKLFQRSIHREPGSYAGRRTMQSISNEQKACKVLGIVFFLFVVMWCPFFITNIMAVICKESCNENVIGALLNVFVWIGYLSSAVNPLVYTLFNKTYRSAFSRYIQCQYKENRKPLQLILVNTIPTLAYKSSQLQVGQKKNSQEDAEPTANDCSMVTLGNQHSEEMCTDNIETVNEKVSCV

[4] = molecular target: T1, RNA-binding protein pos-1 (Caenorhabditis elegans, UniProt G5EF15); assay: disruptors of C. elegans POS-1 RNA interaction – biochemical, fluorescence polarization, dose response (AID 1964);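 also: purified POS-1 fused to maltose binding protein made in E. coli; potency of compounds blocking POS-1 binding to fluorescent RNA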
T1 sequence (G5EF15 whole entry): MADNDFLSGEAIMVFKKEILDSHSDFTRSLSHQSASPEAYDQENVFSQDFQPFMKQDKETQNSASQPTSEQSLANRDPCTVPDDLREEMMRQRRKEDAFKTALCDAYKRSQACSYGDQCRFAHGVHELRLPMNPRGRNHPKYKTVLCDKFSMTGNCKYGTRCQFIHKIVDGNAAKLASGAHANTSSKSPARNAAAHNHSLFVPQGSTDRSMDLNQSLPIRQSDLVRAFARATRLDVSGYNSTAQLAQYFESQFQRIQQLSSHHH

[5] = molecular target: T2, Zinc finger protein mex-5 (Caenorhabditis elegans, UniProt Q9XUB2); assay: potency of MEX-5 RNA-binding blockers – biochemical, C. elegans, fluorescence polarization, dose response (AID 1960)
T2 sequence (Q9XUB2 whole entry): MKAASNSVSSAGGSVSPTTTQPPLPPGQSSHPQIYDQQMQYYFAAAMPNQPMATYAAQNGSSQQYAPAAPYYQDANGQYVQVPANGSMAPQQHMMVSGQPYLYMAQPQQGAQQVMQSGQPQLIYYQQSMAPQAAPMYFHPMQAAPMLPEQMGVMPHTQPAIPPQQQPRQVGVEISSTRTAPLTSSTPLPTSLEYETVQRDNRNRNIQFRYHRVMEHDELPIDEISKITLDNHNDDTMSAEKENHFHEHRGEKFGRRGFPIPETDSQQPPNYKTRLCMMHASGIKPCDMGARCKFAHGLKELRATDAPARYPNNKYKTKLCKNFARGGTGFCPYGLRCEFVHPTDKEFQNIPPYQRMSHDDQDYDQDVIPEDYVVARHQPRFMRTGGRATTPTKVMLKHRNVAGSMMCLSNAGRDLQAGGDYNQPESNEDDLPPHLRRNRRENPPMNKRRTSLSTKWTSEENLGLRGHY

Large T antigen = Large T antigen (Simian virus 40, UniProt P03070); type: functional, Betapolyomavirus macacae;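 also: Confirmatory-stage PubChem screen for compounds that inhibit SV40 T antigen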
Chain of Large T antigen (P03070 whole entry): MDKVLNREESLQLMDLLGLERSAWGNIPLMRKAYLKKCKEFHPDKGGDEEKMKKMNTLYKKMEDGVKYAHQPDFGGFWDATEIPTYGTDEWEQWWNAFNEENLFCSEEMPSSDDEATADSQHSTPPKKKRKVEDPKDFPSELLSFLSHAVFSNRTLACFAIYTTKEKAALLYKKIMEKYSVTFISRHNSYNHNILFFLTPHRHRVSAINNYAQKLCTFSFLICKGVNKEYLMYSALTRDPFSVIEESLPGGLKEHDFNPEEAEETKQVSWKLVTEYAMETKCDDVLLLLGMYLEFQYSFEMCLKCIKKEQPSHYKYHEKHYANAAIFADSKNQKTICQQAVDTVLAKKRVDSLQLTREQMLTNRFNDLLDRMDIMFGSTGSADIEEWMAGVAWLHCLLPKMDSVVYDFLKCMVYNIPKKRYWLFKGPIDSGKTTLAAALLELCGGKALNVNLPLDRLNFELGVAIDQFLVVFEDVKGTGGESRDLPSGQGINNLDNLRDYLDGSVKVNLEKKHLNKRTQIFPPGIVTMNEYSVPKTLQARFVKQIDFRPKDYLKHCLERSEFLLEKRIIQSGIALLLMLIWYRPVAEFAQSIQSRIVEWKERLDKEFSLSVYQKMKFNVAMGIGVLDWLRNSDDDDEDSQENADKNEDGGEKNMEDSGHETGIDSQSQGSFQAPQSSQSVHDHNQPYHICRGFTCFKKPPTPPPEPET

HEK293 = assay: EBV LMP1 TES2 canonical NF-kB signalling blockers – cell-based, HEK293, luciferase, cherry-pick, dose response (AID 588343); type: functional; details: Homo sapiens
[6] = molecular target: T3, Methionyl-tRNA synthetase, putative (Trypanosoma brucei brucei, UniProt Q38C91); type: functional, Trypanosoma brucei brucei strain 927/4 GUTat10.1
T3 sequence (Q38C91 whole entry): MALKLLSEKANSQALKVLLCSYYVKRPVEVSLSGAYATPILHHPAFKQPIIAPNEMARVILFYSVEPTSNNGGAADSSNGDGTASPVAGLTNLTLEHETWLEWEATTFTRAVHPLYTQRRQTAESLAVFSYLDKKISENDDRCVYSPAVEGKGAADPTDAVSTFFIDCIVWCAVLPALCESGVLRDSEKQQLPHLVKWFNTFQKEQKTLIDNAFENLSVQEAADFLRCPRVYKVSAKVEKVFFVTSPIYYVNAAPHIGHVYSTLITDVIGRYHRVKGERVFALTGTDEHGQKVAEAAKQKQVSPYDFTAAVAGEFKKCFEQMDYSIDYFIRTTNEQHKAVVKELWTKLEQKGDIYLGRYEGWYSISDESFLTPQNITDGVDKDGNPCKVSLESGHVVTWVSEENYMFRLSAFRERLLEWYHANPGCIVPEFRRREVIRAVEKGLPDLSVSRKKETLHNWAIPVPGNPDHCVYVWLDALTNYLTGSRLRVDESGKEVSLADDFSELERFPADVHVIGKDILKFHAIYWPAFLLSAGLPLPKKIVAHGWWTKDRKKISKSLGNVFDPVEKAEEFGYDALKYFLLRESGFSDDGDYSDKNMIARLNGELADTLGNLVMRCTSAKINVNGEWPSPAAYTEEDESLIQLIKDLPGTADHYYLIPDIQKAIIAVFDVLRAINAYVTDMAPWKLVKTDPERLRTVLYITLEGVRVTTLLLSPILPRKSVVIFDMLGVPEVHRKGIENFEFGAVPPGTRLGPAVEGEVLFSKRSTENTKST

[7] = molecular target: T4, Calpain-2 catalytic subunit (Sus scrofa, UniProt P43367); assay: m-calpain protease blockers, concentration series – biochemical, fluorogenic peptide substrate, dose response (AID 1420); type: functional
T4 sequence (P43367 whole entry): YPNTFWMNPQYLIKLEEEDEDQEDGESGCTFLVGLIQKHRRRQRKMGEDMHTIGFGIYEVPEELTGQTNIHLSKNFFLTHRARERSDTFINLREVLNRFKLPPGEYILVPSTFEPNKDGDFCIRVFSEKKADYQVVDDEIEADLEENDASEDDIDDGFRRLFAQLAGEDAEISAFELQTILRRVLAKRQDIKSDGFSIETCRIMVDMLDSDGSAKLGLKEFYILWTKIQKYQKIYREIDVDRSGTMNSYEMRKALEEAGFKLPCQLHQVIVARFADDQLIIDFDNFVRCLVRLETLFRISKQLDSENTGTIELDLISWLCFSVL

[8] = Counterscreen for inhibitors of Trypanosoma brucei methionyl tRNA synthetase (MetRS): Luminescence-based cell-based high throughput dose response assay to identify compounds that are cytotoxic to Jurkat human T lymphocyte cells.; type: functional
Protein RecA = molecular target: T5, Protein RecA (Mycobacterium tuberculosis, UniProt P9WHJ3); assay: Fluorescence Cell-Free Homogeneous Dose Retest to Identify Inhibitors of RecA-Intein Splicing Activity. [Related pubchem assays (depositor defined):AID2097, AID2223, AID489010, AID492950]; type: functional
T5 sequence (P9WHJ3 whole entry): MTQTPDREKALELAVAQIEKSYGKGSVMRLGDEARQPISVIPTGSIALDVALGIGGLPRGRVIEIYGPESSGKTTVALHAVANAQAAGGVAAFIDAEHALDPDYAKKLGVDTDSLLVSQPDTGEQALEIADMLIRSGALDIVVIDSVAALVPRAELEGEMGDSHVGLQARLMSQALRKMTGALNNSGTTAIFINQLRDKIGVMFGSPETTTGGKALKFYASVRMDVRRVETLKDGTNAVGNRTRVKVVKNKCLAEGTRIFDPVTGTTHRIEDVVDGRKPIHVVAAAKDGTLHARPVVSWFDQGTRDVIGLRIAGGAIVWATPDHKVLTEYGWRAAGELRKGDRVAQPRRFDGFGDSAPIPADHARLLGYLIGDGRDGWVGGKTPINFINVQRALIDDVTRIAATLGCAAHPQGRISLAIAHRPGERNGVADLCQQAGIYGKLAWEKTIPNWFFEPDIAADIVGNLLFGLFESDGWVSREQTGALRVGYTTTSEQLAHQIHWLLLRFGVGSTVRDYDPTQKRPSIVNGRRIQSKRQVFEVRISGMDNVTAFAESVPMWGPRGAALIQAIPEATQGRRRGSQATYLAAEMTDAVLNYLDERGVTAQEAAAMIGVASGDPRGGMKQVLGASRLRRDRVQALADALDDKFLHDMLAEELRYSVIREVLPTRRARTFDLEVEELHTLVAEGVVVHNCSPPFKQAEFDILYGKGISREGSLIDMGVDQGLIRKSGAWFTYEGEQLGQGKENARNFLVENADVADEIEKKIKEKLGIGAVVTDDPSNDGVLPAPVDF

[9] = molecular target: T6, Replicative DNA helicase DnaB (Mycobacterium tuberculosis, UniProt P9WMR3); assay: DnaB intein splicing inhibitors, dose response, biochemical, cell-free fluorescence (AID 449749); type: functional
T6 sequence (P9WMR3 whole entry): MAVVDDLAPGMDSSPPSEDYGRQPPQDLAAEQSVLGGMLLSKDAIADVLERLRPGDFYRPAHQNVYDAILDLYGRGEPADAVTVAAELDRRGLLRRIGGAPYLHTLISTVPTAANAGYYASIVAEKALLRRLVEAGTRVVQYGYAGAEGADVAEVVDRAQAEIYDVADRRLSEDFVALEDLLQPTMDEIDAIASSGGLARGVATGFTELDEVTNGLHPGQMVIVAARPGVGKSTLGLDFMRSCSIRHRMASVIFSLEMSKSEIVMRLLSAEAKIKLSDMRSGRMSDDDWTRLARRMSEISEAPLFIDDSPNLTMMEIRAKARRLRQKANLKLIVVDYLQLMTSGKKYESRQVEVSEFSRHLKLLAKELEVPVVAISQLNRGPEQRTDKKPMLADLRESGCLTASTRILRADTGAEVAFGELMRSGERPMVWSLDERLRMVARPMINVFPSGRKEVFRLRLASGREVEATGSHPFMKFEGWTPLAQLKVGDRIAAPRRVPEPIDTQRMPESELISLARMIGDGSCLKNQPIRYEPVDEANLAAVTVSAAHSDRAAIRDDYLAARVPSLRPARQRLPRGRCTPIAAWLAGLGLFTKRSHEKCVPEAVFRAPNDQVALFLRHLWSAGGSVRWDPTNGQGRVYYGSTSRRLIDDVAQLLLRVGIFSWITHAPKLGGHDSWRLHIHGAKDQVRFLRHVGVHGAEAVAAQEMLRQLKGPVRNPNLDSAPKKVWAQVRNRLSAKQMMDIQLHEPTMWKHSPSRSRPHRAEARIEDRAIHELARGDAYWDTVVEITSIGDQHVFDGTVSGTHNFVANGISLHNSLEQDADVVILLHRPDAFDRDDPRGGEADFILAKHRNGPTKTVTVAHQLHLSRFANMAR

Cytochrome P450 1A2 = molecular target: T7, Cytochrome P450 1A2 (Homo sapiens, UniProt P05177);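 also: PubChem cytochrome P450 panel assay, CYP1A2 panel member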
T7 sequence (P05177 whole entry): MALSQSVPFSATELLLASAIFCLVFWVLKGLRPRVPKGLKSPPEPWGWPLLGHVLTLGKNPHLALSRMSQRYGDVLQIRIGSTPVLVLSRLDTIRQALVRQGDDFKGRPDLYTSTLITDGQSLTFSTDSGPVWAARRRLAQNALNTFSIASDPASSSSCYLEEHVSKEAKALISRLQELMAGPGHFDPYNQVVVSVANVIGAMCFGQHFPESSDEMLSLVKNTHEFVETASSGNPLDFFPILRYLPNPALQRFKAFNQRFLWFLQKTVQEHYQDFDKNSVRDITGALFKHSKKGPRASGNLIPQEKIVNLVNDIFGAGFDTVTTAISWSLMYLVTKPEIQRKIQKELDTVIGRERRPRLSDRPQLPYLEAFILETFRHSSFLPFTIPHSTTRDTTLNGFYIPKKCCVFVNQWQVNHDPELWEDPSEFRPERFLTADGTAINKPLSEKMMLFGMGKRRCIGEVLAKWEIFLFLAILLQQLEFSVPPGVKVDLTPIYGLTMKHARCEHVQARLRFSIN

Cytochrome P450 2C19 = Cytochrome P450 2C19 (Homo sapiens, UniProt P33261); assay: Cytochrome panel assay with activity outcomes. Panel member name: p450-cyp2c19 Compounds with AC50 equal or less than 10 uM are considered active; type: functional
Chain of Cytochrome P450 2C19 (P33261 whole entry): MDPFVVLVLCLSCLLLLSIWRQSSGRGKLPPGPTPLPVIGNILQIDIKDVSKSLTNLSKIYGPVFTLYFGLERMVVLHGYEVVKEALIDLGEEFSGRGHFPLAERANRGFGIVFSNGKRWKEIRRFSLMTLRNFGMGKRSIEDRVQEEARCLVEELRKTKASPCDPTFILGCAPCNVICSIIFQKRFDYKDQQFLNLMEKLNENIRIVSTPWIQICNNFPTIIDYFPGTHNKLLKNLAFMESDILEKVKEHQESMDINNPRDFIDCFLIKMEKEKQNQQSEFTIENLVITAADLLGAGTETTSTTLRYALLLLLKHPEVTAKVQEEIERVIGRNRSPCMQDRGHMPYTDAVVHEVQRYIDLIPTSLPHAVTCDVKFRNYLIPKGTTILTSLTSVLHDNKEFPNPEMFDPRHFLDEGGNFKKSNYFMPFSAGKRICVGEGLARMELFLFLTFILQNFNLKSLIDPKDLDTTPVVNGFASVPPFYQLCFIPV

Cytochrome P450 2C9 = Cytochrome P450 2C9 (Homo sapiens, UniProt P11712)
Chain of Cytochrome P450 2C9 (P11712 whole entry): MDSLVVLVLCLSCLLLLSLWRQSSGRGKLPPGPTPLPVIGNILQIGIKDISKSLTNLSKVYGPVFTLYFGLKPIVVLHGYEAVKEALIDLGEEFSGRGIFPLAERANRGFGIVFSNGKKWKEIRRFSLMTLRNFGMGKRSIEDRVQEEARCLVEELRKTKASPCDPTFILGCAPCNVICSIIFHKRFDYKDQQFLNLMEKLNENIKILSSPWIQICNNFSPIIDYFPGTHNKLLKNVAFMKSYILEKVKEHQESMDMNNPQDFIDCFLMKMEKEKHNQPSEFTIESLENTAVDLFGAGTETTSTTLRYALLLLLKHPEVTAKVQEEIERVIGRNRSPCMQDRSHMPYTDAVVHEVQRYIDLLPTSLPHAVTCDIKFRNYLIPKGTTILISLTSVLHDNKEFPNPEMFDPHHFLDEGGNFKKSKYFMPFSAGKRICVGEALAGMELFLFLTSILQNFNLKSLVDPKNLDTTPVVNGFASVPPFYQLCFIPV

Cytochrome P450 2D6 = Cytochrome P450 2D6 (Homo sapiens, UniProt P10635);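 also: CYP2D6 member of a cytochrome P450 panel assay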
Chain of Cytochrome P450 2D6 (P10635 whole entry): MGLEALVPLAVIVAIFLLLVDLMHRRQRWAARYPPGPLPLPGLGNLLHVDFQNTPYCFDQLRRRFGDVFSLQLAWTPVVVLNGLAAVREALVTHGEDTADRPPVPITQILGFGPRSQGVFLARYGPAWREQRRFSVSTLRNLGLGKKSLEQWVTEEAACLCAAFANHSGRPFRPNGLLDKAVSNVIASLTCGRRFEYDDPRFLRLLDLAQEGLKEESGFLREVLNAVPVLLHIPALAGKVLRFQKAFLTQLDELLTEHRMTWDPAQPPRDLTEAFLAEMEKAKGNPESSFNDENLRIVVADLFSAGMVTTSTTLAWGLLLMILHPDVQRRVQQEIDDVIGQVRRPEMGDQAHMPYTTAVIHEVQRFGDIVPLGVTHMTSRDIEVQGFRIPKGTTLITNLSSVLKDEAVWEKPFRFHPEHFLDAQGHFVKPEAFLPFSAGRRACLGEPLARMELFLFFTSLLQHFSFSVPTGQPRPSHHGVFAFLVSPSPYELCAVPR

Chain of Beta-galactosidase (Q8VNN2 whole entry): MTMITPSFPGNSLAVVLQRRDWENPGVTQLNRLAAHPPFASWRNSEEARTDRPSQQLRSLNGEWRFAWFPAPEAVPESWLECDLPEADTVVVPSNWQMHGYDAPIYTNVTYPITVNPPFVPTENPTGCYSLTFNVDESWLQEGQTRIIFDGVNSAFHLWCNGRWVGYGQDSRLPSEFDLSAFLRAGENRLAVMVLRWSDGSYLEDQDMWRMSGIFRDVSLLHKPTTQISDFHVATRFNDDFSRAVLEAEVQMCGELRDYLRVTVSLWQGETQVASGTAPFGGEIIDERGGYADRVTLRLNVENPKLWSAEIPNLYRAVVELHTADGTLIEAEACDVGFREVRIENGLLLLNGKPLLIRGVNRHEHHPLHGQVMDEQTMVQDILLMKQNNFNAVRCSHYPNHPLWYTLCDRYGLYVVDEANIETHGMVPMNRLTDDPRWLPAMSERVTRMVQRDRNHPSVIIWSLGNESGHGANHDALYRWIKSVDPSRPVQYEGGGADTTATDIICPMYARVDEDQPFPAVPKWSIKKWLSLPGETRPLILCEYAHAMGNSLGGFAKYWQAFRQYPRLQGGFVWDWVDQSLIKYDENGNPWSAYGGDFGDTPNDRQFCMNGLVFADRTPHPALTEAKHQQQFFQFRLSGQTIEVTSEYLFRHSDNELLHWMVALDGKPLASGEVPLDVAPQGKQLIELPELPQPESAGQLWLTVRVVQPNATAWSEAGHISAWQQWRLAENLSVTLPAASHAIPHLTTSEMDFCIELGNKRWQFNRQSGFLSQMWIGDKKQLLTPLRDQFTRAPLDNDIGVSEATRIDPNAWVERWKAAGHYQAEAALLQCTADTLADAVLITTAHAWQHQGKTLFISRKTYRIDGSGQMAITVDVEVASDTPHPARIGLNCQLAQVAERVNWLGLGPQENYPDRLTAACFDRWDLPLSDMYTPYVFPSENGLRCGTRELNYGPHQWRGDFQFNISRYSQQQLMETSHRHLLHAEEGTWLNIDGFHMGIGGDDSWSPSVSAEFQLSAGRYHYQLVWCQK

For COc1ccc(-c2cc(C(=O)N3CCN(C(c4ccccc4)c4ccccc4)CC3)no2)cc1, the IC50 (Beta-galactosidase) was > 80 µM (inactive).
In the case of Cc1ccc2[nH]c(C(=O)N3CCN(C(c4ccccc4)c4ccccc4)CC3)cc2c1, the IC50 (Beta-galactosidase) was > 80 µM (inactive).
In the case of CN1CCc2cc(O)cc3c2[C@H]1Cc1ccc(O)c(O)c1-3, the CC50 [1] was 16 µM (active), the IC50 [2] was 63 µM (inactive) and the EC50 (Mu-type opioid receptor) was 92.4 µM (inactive). The EC50 [3] was 0.0112 µM (active), the EC50 [4] was 5.41 µM (active) and the EC50 [5] was 3.17 µM (active). The IC50 (Large T antigen) was 9.43 µM (active).
In the case of Cc1cc(C(=O)CN2C(=O)c3ccccc3C2=O)c(C)n1Cc1cccs1, the AC50 (HEK293) was 4.41 µM (active).
For CO/N=C(\c1nonc1N)N1CCN(c2ccc(Cl)cc2[N+](=O)[O-])CC1, the IC50 [6] was 119 µM (inactive), the IC50 [7] was > 50 µM (not active) and the IC50 [8] was 83.3 µM (inactive).
For CC(C)C[C@H]1C(=O)N2CCC[C@H]2[C@]2(O)O[C@](NC(=O)[C@@H]3C=C4c5cccc6[nH]c(Br)c(c56)CC4N(C)C3)(C(C)C)C(=O)N12 (stereo not given in full), the EC50 (Protein RecA) was > 380 µM (inactive), the AC50 [9] was > 380 µM (inactive) and the EC50 (Mu-type opioid receptor) was 92.5 µM (inactive). The EC50 [3] was 0.0038 µM (active).
With CCC(c1nnnn1-c1ccc2c(c1)OCCO2)N1CCN(C/C=C/c2ccccc2)CC1 (stereo not given) the EC50 (Mu-type opioid receptor) was 92.6 µM (inactive) and the EC50 [3] was 76.2 µM (inactive).
With CCS(=O)(=O)N1CCC(C(=O)NCCCN2CCN(c3ccccc3F)CC2)CC1 the AC50 (Cytochrome P450 1A2) was 1.26 µM (inconclusive), the AC50 (Cytochrome P450 2C19) was “inconclusive” and the EC50 (Mu-type opioid receptor) was 92.5 µM (inactive). The EC50 [3] was 76.1 µM (inactive), the AC50 (Cytochrome P450 2C9) was “inconclusive” and the AC50 (Cytochrome P450 2D6) was 15.8 µM (inconclusive).
